Laboratory results as given in ChEMBL document CHEMBL4842386, “Discovery of Reldesemtiv, a Fast Skeletal Muscle Troponin Activator for the Treatment of Impaired Muscle Function” (J Med Chem, 2021).
Values after ≈ are worked out from the molar mass of the structure shown. Active and inactive are the calls of the source. No cut-off for these calls is given here.

What was measured:
Psoas muscle [1] = test: Activation of fast twitch skeletal muscle in rabbit psoas muscle myofibrils by measuring increase in myofibril ATPase activity at 25% calcium concentration; type: functional; settings: Oryctolagus cuniculus
[2] = Metabolic stability in human liver microsomes assessed as intrinsic clearance measured after 90 mins by HPLC/MS/MS analysis; type: ADME, Microsome; settings: read-out: CLH
Psoas muscle [3] = test: Increase in psoas muscle force in rabbit skinned single fiber preparation at a calcium concentration that produces a force increase that is 25% of the maximum response in a control preparation by skinned fast skeletal muscle fiber assay; type: functional; settings: Oryctolagus cuniculus
[4] = Drug distribution in Sprague-Dawley rat plasma to blood ratio at 100 mg/kg, po by HPLC analysis; type: ADME, organism-based; settings: in vivo
hERG (KCNH2) = hERG (KCNH2) (Homo sapiens, UniProt Q12809); test: Displacement of [3H]astemizole from human ERG expressed in HEK293 cells at 100 uM relative to control; type: cell-based; settings: HEK293 cells that express hERG, probe [3H]astemizole
[5] = Intrinsic clearance in male rat hepatocytes; type: ADME, cell-based, Hepatocyte; settings: read-out: CLH
[6] = molecular target: T1, Nuclear receptor subfamily 1 group I member 2 (Homo sapiens, UniProt O75469); test: Transactivation of human PXR transfected in DPX2 cells assessed as CYP3A4 induction at 10 uM by luciferase reporter gene assay; type: ADME, cell-based; settings: dpx2, 10 µM
T1 sequence (O75469 whole entry): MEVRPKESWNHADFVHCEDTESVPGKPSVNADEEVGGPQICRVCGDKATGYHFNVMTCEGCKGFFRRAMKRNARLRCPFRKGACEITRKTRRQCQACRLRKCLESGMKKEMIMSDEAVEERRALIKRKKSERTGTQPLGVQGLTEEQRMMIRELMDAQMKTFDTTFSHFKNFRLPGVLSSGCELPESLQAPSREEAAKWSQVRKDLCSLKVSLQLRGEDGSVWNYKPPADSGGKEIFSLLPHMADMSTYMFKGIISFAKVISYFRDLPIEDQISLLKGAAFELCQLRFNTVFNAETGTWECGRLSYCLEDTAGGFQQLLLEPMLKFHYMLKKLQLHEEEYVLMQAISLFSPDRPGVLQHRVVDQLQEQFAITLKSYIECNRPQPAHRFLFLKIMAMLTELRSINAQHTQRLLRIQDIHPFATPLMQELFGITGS

[7] = Volume of distribution at steady state in male Sprague-Dawley rat at 3 mg/kg, po administered as single dose measured up to 24 hrs by HPLC analysis; type: ADME, organism-based; settings: in vivo
[8] = Drug distribution in Sprague-Dawley rat Soleus muscle to blood ratio at 100 mg/kg, po by HPLC analysis; type: ADME, organism-based
[9] = Drug distribution in Sprague-Dawley rat brain to blood ratio at 100 mg/kg, po by HPLC analysis; type: ADME, organism-based
[10] = Efflux ratio of apparent permeability in human Caco-2 cells; type: ADME, cell-based
[11] = Clearance in male Sprague-Dawley rat at 3 mg/kg, po administered as single dose measured up to 24 hrs by HPLC analysis; type: ADME, organism-based; settings: in vivo
[12] = Metabolic stability in male rat liver microsomes assessed as intrinsic clearance measured after 90 mins by HPLC/MS/MS analysis; type: ADME, Microsome; settings: read-out: CLH
[13] = Plasma protein binding in male rat assessed as unbound fraction; type: ADME, cell-free
[14] = Oral bioavailability in male Sprague-Dawley rat at 3 mg/kg administered as single dose measured up to 24 hrs by HPLC analysis; type: ADME, organism-based; settings: in vivo
[15] = Drug distribution in Sprague-Dawley rat extensor digitorum longus to blood ratio at 100 mg/kg, po by HPLC analysis; type: ADME, organism-based
[16] = Volume of distribution at steady state in male Sprague-Dawley rat at 1 mg/kg, po administered as single dose measured up to 24 hrs by HPLC analysis; type: ADME, organism-based; settings: in vivo
[17] = Clearance in male Sprague-Dawley rat at 1 mg/kg, po administered as single dose measured up to 24 hrs by HPLC analysis; type: ADME, organism-based; settings: in vivo
[18] = Oral bioavailability in male Sprague-Dawley rat at 1 mg/kg administered as single dose measured up to 24 hrs by HPLC analysis; type: ADME, organism-based; settings: in vivo
[19] = molecular target: Voltage-gated inwardly rectifying potassium channel KCNH2 (Homo sapiens, UniProt Q12809); test: Inhibition of human ERG expressed in HEK293 cells at -80 mV holding potential by patch clamp assay; type: cell-based
[20] = Thermodynamic solubility of the compound; type: physicochemical; settings: read-out: Therm_solubility
[21] = test system: Extensor digitorum longus; test: Increase in muscle tension in rat extensor digitorum longus muscle rat model assessed as free plasma concentration to increase muscle tension at subtetanic nerve stimulation rate of 30 Hz; type: functional, tissue-based

hERG (KCNH2), sequence (Q12809 whole entry): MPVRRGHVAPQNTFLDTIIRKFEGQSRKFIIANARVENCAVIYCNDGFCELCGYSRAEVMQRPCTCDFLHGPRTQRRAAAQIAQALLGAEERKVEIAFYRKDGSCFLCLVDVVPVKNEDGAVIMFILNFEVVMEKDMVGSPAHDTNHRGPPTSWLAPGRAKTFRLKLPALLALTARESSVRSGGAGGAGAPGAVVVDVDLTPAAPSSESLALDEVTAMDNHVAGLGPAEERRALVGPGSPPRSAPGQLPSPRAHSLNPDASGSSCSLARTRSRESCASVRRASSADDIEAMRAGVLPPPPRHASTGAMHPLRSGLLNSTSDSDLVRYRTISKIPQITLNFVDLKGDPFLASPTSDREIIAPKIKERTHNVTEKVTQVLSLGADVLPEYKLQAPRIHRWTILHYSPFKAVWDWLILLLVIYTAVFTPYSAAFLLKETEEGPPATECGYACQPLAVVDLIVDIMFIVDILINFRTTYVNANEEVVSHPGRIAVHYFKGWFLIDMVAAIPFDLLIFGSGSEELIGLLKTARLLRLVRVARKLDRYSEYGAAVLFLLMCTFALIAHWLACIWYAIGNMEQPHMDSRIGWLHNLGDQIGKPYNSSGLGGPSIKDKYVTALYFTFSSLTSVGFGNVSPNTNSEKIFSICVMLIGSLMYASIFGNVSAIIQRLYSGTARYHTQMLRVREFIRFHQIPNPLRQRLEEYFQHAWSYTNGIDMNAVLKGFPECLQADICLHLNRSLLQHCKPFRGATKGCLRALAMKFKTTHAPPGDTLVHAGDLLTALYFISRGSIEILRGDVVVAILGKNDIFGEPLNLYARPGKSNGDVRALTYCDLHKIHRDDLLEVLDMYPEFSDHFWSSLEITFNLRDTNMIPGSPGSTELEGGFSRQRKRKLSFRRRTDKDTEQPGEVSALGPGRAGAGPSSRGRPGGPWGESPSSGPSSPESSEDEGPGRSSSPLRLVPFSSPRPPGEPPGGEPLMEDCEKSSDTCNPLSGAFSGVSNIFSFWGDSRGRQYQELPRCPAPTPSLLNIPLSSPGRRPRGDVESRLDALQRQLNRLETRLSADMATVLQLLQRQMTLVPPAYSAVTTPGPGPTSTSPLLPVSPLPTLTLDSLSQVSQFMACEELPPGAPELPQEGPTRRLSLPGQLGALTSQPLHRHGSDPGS
Voltage-gated inwardly rectifying potassium channel KCNH2, sequence (Q12809 whole entry): as above

CLint scaled [2]	SMILES	EC40 (Psoas muscle [1])	EC30 (Psoas muscle [3])	also measured
30 mL/min/kg	CC(C)(CNc1ncns1)c1ccc(F)cc1	8400 nM	–	–
–	CC(C)(CNc1nc(-c2ccccc2)ns1)c1ccc(F)cc1	8900 nM	–	–
6 mL/min/kg	CC(C)(CNc1ncc(-c2cccc(C(N)=O)c2)cn1)c1ccc(F)cc1	8700 nM	7800 nM	–
–	COCCCc1nsc(NCC(C)(C)c2ccc(F)cc2)n1	2500 nM	–	–
< 14 mL/min/kg	NC(=O)c1cccc(-c2cnc(NC[C@]3(c4ncccc4F)C[C@H](F)C3)nc2)c1	300 nM	800 nM	Ratio [4]: 1.85; inhibition at 100 µM (hERG (KCNH2)): 46%; CLint scaled [5]: 38 mL/min/kg; Activity [6]: 68%; Vdss [7]: 1.7 L/kg; Kp [8]: 1.16; Kp [9]: 0.15; efflux ratio [10]: 1.8; CL/F [11]: 59 mL/min/kg; CLint scaled [12]: 38 mL/min/kg; fraction unbound [13]: 0.15; bioavailability [14]: 21%; Kp [15]: 1.2
–	NC(=O)c1cnc(-c2ccc(NCC3(c4ncccc4F)CCC3)nn2)o1	3900 nM	5400 nM	–
< 14 mL/min/kg	NC(=O)c1cnn(-c2ccc(NC[C@]3(c4ncccc4F)C[C@H](F)C3)nn2)c1	800 nM	1100 nM	inhibition at 100 µM (hERG (KCNH2)): 16%; CLint scaled [5]: 90 mL/min/kg; Activity [6]: 7%; Vdss [16]: 2.6 L/kg; CLint scaled [12]: 30 mL/min/kg; fraction unbound [13]: 0.55; CL/F [17]: 115 mL/min/kg
7 mL/min/kg	CC(C)(CNc1ccc(-c2cccc(C(N)=O)c2)cn1)c1ccc(F)cc1	500 nM	1500 nM	–
< 14 mL/min/kg	NC(=O)c1cnn(-c2ccc(NCC3(c4ncccc4F)CCC3)nn2)c1	500 nM	700 nM	inhibition at 100 µM (hERG (KCNH2)): 19%; CLint scaled [5]: 378 mL/min/kg; bioavailability [18]: 12%; Vdss [16]: 2.2 L/kg; CLint scaled [12]: 30 mL/min/kg; IC50 [19]: > 100000 nM; fraction unbound [13]: 0.42; CL/F [17]: 136 mL/min/kg
< 14 mL/min/kg	NC(=O)c1ccn(-c2ccc(NCC3(c4ncccc4F)CCC3)nn2)c1	900 nM	1100 nM	inhibition at 100 µM (hERG (KCNH2)): 27%; CLint scaled [5]: 207 mL/min/kg; Activity [6]: 43%; Vdss [16]: 2.4 L/kg; CLint scaled [12]: 26 mL/min/kg; IC50 [19]: 97000 nM; fraction unbound [13]: 0.35; CL/F [17]: 73 mL/min/kg
–	CN(C)C(=O)c1cnn(-c2ccc(NCC3(c4ncccc4F)CCC3)nn2)c1	20200 nM	–	–
15 mL/min/kg	NC(=O)c1cccc(-c2ccc(NCC3(c4ccc(F)cc4)CCC3)nn2)c1	200 nM	600 nM	–
–	CN(CC1(c2ccccn2)CCC1)c1ccc(-c2cccc(C(N)=O)c2)nn1	> 49000 nM	–	–
–	CC(C)(CNc1nc(Cc2ccc(F)cc2)ns1)c1ccc(Cl)cc1	600 nM	7400 nM	–
< 14 mL/min/kg	NC(=O)c1cnn(-c2cnc(NC[C@]3(c4ncccc4F)C[C@H](F)C3)nc2)c1	1200 nM	3300 nM	–
–	CC(Cc1ccc(Cl)cc1)Nc1nc(Cc2ccc(F)cc2)ns1 (stereo not drawn)	22100 nM	–	–
–	NC(=O)c1cnc(-c2ccc(NCC3(c4ncccc4F)CCC3)nn2)s1	100 nM	400 nM	IC50 [19]: > 100000 nM
11 mL/min/kg	CC(C)(CNc1nc(-c2cccc(C(N)=O)c2)ns1)c1ccc(F)cc1	500 nM	1400 nM	solubility thermodynamic [20]: < 27 µM
< 7 mL/min/kg	NC(=O)c1cccc(-c2ccc(NCC3(c4ccccn4)CCC3)nn2)c1	500 nM	900 nM	–
–	NC(=O)c1cnn(-c2ccc(NCC3(c4ncccc4F)CC(F)(F)C3)nn2)c1	2600 nM	4000 nM	–
–	Fc1ccc(Cc2nsc(NCCc3ccc(Cl)cc3)n2)cc1	4300 nM	13700 nM	–

CLint scaled [2]	SMILES	EC40 (Psoas muscle [1])	EC30 (Psoas muscle [3])	also measured
–	CN(C)C(=O)c1cccc(-c2nsc(NCC(C)(C)c3ccc(F)cc3)n2)c1	2900 nM	3100 nM	–
–	Fc1ccc(CCNc2nc(Cc3ccc(F)cc3)ns2)cc1	9900 nM	–	–
–	CC(C)CCNc1nc(Cc2ccc(F)cc2)ns1	> 49000 nM	–	–
–	CC(C)(CNc1cnc(-c2cccc(C(N)=O)c2)cn1)c1ccc(F)cc1	800 nM	inactive	–
–	NC(=O)c1nccc(-c2ccc(NCC3(c4ncccc4F)CCC3)nn2)n1	> 49000 nM	–	–
–	CC(C)(CNc1cnc(-c2cccc(C(N)=O)c2)nc1)c1ccc(F)cc1	3600 nM	–	–
–	NC(=O)c1cc(-c2ccc(NCC3(c4ncccc4F)CCC3)nn2)ncn1	4400 nM	–	–
< 14 mL/min/kg	NC(=O)c1ccn(-c2cnc(NCC3(c4ncccc4F)CCC3)nc2)c1	1300 nM	1400 nM	inhibition at 100 µM (hERG (KCNH2)): 43%
< 7 mL/min/kg	NC(=O)c1cccc(-c2ccc(NCC3(c4ccc(F)cn4)CCC3)nn2)c1	3500 nM	2300 nM	–
–	Fc1ccc(Cc2nsc(NCCc3ccccc3)n2)cc1	23300 nM	–	–
8 mL/min/kg	CC(C)(CNc1ccc(-c2cccc(C(N)=O)c2)nn1)c1ccc(F)cc1	1200 nM	3000 nM	solubility thermodynamic [20]: 86 µM (≈ 31.3 µg/mL)
–	CC(CNc1nc(Cc2ccc(F)cc2)ns1)c1ccc(Cl)cc1 (stereo not drawn)	1100 nM	16700 nM	solubility thermodynamic [20]: < 27 µM
< 7 mL/min/kg	CNC(=O)c1cccc(-c2cnc(NC[C@]3(c4ncccc4F)C[C@H](F)C3)nc2)c1	900 nM	500 nM	Ratio [4]: 1.15; inhibition at 100 µM (hERG (KCNH2)): 42%; CLint scaled [5]: < 32 mL/min/kg; Activity [6]: 31%; Vdss [7]: 2.6 L/kg; Kp [8]: 0.53; Kp [9]: 0.027; efflux ratio [10]: 10; CL/F [11]: 52 mL/min/kg; CLint scaled [12]: 14 mL/min/kg; fraction unbound [13]: 0.27; Kp [15]: 0.54
–	NC(=O)c1ccn(-c2ccc(NCC3(c4ncccc4F)CCC3)nn2)n1	22700 nM	–	–
–	CC(C)(CNc1ccc(-c2cccc(C(N)=O)c2)nc1)c1ccc(F)cc1	300 nM	–	–
11 mL/min/kg	NC(=O)c1cccc(-c2ccc(NCC3(c4ncccc4F)CCC3)nn2)c1	300 nM	500 nM	–
9 mL/min/kg	CC(C)(CNc1nc(-c2ccc(C(N)=O)cc2)ns1)c1ccc(F)cc1	500 nM	2300 nM	solubility thermodynamic [20]: < 27 µM
–	CC(C)(CNc1nsc(-c2cccc(C(N)=O)c2)n1)c1ccc(F)cc1	500 nM	7100 nM	–
< 7 mL/min/kg	NC(=O)c1cccc(-c2ccc(NCC3(c4cnccn4)CCC3)nn2)c1	46100 nM	–	–
–	C#Cc1cnc2nc(O)n(C(CC)CC)c2n1 [TIRASEMTIV]	–	–	Ratio [4]: 1.62; Kp [8]: 0.3; EC50 [21]: 6000 nM; Kp [9]: 0.27; efflux ratio [10]: 0.9; fraction unbound [13]: 0.05
